EPSA data for 11 compounds are collected here from patent publication US20260022143A1, “Cyclic Peptide Inhibitors of IL-23” (JANSSEN PHARMACEUTICA NV, priority 2022, published 2026).

Positions of bridges follow the written chain, without caps; N, C: chain ends. Non-standard residues stand in square brackets, D forms with d. Residues, ends and D or L forms follow the SMILES beside them. *: point of attachment. Me3N+(CH2)2O(CH2)2O(CH2)2CO = C[N+](C)(C)CCOCCOCCC(=O)*; CH2CH2OCH2CH2OCH2CH2NMe3+ = C[N+](C)(C)CCOCCOCC*; Trp(7-Me) = Cc1cccc2c(C[C@H](N)C(=O)O)c[nH]c12; X28 = CCCCCCCCCCCCCCCC[N+](C)(C)CCc1cn(CC*)nn1; X30 = C[N+](C)(C)CCOCCOCCOCCOCc1cn(CC*)nn1; X73 = C[N+](C)(C)CCOCCOCCNC(=O)CCCCCCCC*; X89 = COCCOCCOCC[N+](C)(CCOCCOCCOC)CC*; 2Nal = N[C@@H](Cc1ccc2ccccc2c1)C(=O)O; X45 = COCC[N+](C)(C)CCc1cn(CC*)nn1; 3Pal = N[C@@H](Cc1cccnc1)C(=O)O; X14 = C[N+](C)(C)CCc1cn(CC*)nn1; Lys(Me) = CNCCCC[C@H](N)C(=O)O; X69 = CN(CCOCC[N+](C)(C)C)CC*; X90 = COCCOCCOCC[N+](C)(C)CC*; Pen = CC(C)(S)[C@H](N)C(=O)O; X84 = CN(CCC[N+](C)(C)C)CC*; Thp = NC1(C(=O)O)CCOCC1; X42 = O=C(O)CCCCCCCC*; Sar = CNCC(=O)O

The series is described as follows: Exposed Polar Surface Area (EPSA). Format: physicochemical. The settings on record: SFC on Chirex 3014 column; sample 1 mM DMSO stock; read-out: EPSA. The essentials:
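Polarity descriptor in Å² derived from retention time using 8 calibration standards re-run every 20 compounds. Duplicate injections of 1 mM DMSO stock; linear 5–60% modifier gradient (20 mM ammonium formate in MeOH) with CO2 at 4 mL/min, 35 °C, on a Chirex 3014 column.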
On to `CC(=O)N(C)CCCC[C@@H]1NC(=O)[C@H](Cc2c[nH]c3c(C)cccc23)NC(=O)[C@H]([C@@H](C)O)NC(=O)[C@H](CC(=O)N(C)C)NC(=O)[C@@H](NC(=O)CCOCCOCC[N+](C)(C)C)C(C)(C)SSC(C)(C)[C@@H](C(=O)N[C@@H](Cc2ccc(OCCN(C)CCC[N+](C)(C)C)cc2)C(=O)N[C@@H](Cc2ccc3ccccc3c2)C(=O)NC2(C(=O)N[C@@H](CCCCN(C)C(C)=O)C(=O)N[C@@H](CC(N)=O)C(=O)N[C@@H](Cc3cccnc3)C(=O)N(C)CC(=O)N(C)C)CCOCC2)NC1=O` [compound 234, cPEG3aCO-Pen(3)-N(N(Me)2)-T-7MeW-K(NMeAc)-Pen(3)-AEF(MePrpa)-2Nal-THP-K(NMeAc)-N-3Pya-Sar-CON(Me)2] ({Me3N+(CH2)2O(CH2)2O(CH2)2CO}-[Pen]D(NMe2)T[Trp(7-Me)][Lys(Me)](Ac)[Pen]Y(X84)[2Nal][Thp][Lys(Me)](Ac)N[3Pal][Sar]-NMe2; disulfide 1-6), for which the EPSA stood at 141 A^2.

Consider `CC(=O)NCCCC[C@@H]1NC(=O)[C@H](Cc2c[nH]c3c(C)cccc23)NC(=O)[C@H]([C@@H](C)O)NC(=O)[C@H](CC(N)=O)NC(=O)[C@@H](NC(C)=O)C(C)(C)SSC(C)(C)[C@@H](C(=O)N[C@@H](Cc2ccc(OCCn3cc(CC[N+](C)(C)C)nn3)cc2)C(=O)N[C@@H](Cc2ccc3ccccc3c2)C(=O)NC2(C(=O)N[C@@H](CCCCNC(C)=O)C(=O)N[C@@H](CC(N)=O)C(=O)N[C@@H](Cc3cccnc3)C(=O)N(C)CC(N)=O)CCOCC2)NC1=O` [compound 235] (Ac-[Pen]NT[Trp(7-Me)]K(Ac)[Pen]Y(X14)[2Nal][Thp]K(Ac)N[3Pal][Sar]-NH2; disulfide 1-6 (inferred)), for which the EPSA was 149 A^2.

Regarding `CC(=O)N(C)CCCC[C@@H]1NC(=O)[C@H](Cc2c[nH]c3c(C)cccc23)NC(=O)[C@H]([C@@H](C)O)NC(=O)[C@H](CC(=O)N(C)C)NC(=O)[C@@H](NC(=O)CCOCCOCC[N+](C)(C)C)C(C)(C)SSC(C)(C)[C@@H](C(=O)N[C@@H](Cc2ccc(OCCCCCCCCC(=O)O)cc2)C(=O)N[C@@H](Cc2ccc3ccccc3c2)C(=O)NC2(C(=O)N[C@@H](CCCCN(C)C(C)=O)C(=O)N[C@@H](CC(N)=O)C(=O)N[C@@H](Cc3cccnc3)C(=O)N(C)CC(=O)N(C)C)CCOCC2)NC1=O` [compound 236, cPEG3aCO-Pen(3)-N(N(Me)2)-T-7MeW-K(NMeAc)-Pen(3)-Y(C9OH)-2Nal-THP-K(NMeAc)-N-3Pya-Sar-CON(Me)2] ({Me3N+(CH2)2O(CH2)2O(CH2)2CO}-[Pen]D(NMe2)T[Trp(7-Me)][Lys(Me)](Ac)[Pen]Y(X42)[2Nal][Thp][Lys(Me)](Ac)N[3Pal][Sar]-NMe2; disulfide 1-6), the EPSA is 159 A^2.

With `CC(=O)N(C)CCCC[C@@H]1NC(=O)[C@H](Cc2c[nH]c3c(C)cccc23)NC(=O)[C@H]([C@@H](C)O)NC(=O)[C@H](CC(=O)N(C)C)NC(=O)[C@@H](NC(=O)CCOCCOCC[N+](C)(C)C)C(C)(C)SSC(C)(C)[C@@H](C(=O)N[C@@H](Cc2ccc(OCCN(C)CCOCC[N+](C)(C)C)cc2)C(=O)N[C@@H](Cc2ccc3ccccc3c2)C(=O)NC2(C(=O)N[C@@H](CCCCN(C)C(C)=O)C(=O)N[C@@H](CC(N)=O)C(=O)N[C@@H](Cc3cccnc3)C(=O)N(C)CC(=O)N(C)C)CCOCC2)NC1=O` [compound 237, cPEG3aCO-Pen(3)-N(N(Me)2)-T-7MeW-K(NMeAc)-Pen(3)-AEF(NMePEG2a)-2Nal-THP-K(NMeAc)-N-3Pya-Sar-CON(Me)2] ({Me3N+(CH2)2O(CH2)2O(CH2)2CO}-[Pen]D(NMe2)T[Trp(7-Me)][Lys(Me)](Ac)[Pen]Y(X69)[2Nal][Thp][Lys(Me)](Ac)N[3Pal][Sar]-NMe2; disulfide 1-6), the EPSA worked out at 140 A^2.

In the case of `COCCOCCOCC[N+](C)(C)CCOc1ccc(C[C@H](NC(=O)[C@H]2NC(=O)[C@H](CCCCN(C)C(C)=O)NC(=O)[C@H](Cc3c[nH]c4c(C)cccc34)NC(=O)[C@H]([C@@H](C)O)NC(=O)[C@H](CC(=O)N(C)C)NC(=O)[C@@H](NC(=O)CCOCCOCC[N+](C)(C)C)C(C)(C)SSC2(C)C)C(=O)N[C@@H](Cc2ccc3ccccc3c2)C(=O)NC2(C(=O)N[C@@H](CCCCN(C)C(C)=O)C(=O)N[C@@H](CC(N)=O)C(=O)N[C@@H](Cc3cccnc3)C(=O)N(C)CC(=O)N(C)C)CCOCC2)cc1` [compound 239, cPEG3aCO-Pen(3)-N(N(Me)2)-T-7MeW-K(NMeAc)-pen(3)-AEF(NMe2mPEG3)-2Nal-THP-K(NMeAc)-N-3Pya-Sar-CON(Me)2] ({Me3N+(CH2)2O(CH2)2O(CH2)2CO}-[Pen]D(NMe2)T[Trp(7-Me)][Lys(Me)](Ac)[Pen]Y(X90)[2Nal][Thp][Lys(Me)](Ac)N[3Pal][Sar]-NMe2; disulfide 1-6), the EPSA was 138 A^2.

As to `COCCOCCOCC[N+](C)(CCOCCOCCOC)CCOc1ccc(C[C@H](NC(=O)[C@H]2NC(=O)[C@H](CCCCN(C)C(C)=O)NC(=O)[C@H](Cc3c[nH]c4c(C)cccc34)NC(=O)[C@H]([C@@H](C)O)NC(=O)[C@H](CC(=O)N(C)C)NC(=O)[C@@H](NC(=O)CCOCCOCC[N+](C)(C)C)C(C)(C)SSC2(C)C)C(=O)N[C@@H](Cc2ccc3ccccc3c2)C(=O)NC2(C(=O)N[C@@H](CCCCN(C)C(C)=O)C(=O)N[C@@H](CC(N)=O)C(=O)N[C@@H](Cc3cccnc3)C(=O)N(C)CC(=O)N(C)C)CCOCC2)cc1` [compound 241, cPEG3aCO-Pen(3)-N(N(Me)2)-T-7MeW-K(NMeAc)-Pen(3)-AEF(NMeBismPEG3)-2Nal-THP-K(NMeAc)-N-3Pya-Sar-CON(Me)2] ({Me3N+(CH2)2O(CH2)2O(CH2)2CO}-[Pen]D(NMe2)T[Trp(7-Me)][Lys(Me)](Ac)[Pen]Y(X89)[2Nal][Thp][Lys(Me)](Ac)N[3Pal][Sar]-NMe2; disulfide 1-6), the EPSA worked out at 135 A^2.

As for `CC(=O)NCCCC[C@@H]1NC(=O)[C@H](Cc2c[nH]c3c(C)cccc23)NC(=O)[C@H]([C@@H](C)O)NC(=O)[C@H](CC(=O)N(C)C)NC(=O)[C@@H](NC(=O)CCOCCOCC[N+](C)(C)C)C(C)(C)SSC(C)(C)[C@@H](C(=O)N[C@@H](Cc2ccc(OCCOCCOCC[N+](C)(C)C)cc2)C(=O)N[C@@H](Cc2ccc3ccccc3c2)C(=O)NC2(C(=O)N[C@@H](CCCCN(C)C(C)=O)C(=O)N[C@@H](CC(N)=O)C(=O)N[C@@H](Cc3cccnc3)C(=O)N(C)CC(=O)N(C)C)CCOCC2)NC1=O` [compound 243, cPEG3aCO-Pen(3)-N(N(Me)2)-T-7MeW-K(Ac)-Pen(3)-APEG3F-2Nal-THP-K(NMeAc)-N-3Pya-Sar-CON(Me)2] ({Me3N+(CH2)2O(CH2)2O(CH2)2CO}-[Pen]D(NMe2)T[Trp(7-Me)]K(Ac)[Pen]Y(CH2CH2OCH2CH2OCH2CH2NMe3+)[2Nal][Thp][Lys(Me)](Ac)N[3Pal][Sar]-NMe2; disulfide 1-6), the EPSA came out at 142 A^2.

Regarding `COCC[N+](C)(C)CCc1cn(CCOc2ccc(C[C@H](NC(=O)[C@H]3NC(=O)[C@H](CCCCNC(C)=O)NC(=O)[C@H](Cc4c[nH]c5c(C)cccc45)NC(=O)[C@H]([C@@H](C)O)NC(=O)[C@H](CC(N)=O)NC(=O)[C@@H](NC(C)=O)C(C)(C)SSC3(C)C)C(=O)N[C@@H](Cc3ccc4ccccc4c3)C(=O)NC3(C(=O)N[C@@H](CCCCNC(C)=O)C(=O)N[C@@H](CC(N)=O)C(=O)N[C@@H](Cc4cccnc4)C(=O)N(C)CC(N)=O)CCOCC3)cc2)nn1` [compound 249] (Ac-[Pen]NT[Trp(7-Me)]K(Ac)[Pen]Y(X45)[2Nal][Thp]K(Ac)N[3Pal][Sar]-NH2; disulfide 1-6 (inferred)), the EPSA was 147 A^2.

Consider `CC(=O)NCCCC[C@@H]1NC(=O)[C@H](Cc2c[nH]c3c(C)cccc23)NC(=O)[C@H]([C@@H](C)O)NC(=O)[C@H](CC(N)=O)NC(=O)[C@@H](NC(C)=O)C(C)(C)SSC(C)(C)[C@@H](C(=O)N[C@@H](Cc2ccc(OCCn3cc(COCCOCCOCCOCC[N+](C)(C)C)nn3)cc2)C(=O)N[C@@H](Cc2ccc3ccccc3c2)C(=O)NC2(C(=O)N[C@@H](CCCCNC(C)=O)C(=O)N[C@@H](CC(N)=O)C(=O)N[C@@H](Cc3cccnc3)C(=O)N(C)CC(N)=O)CCOCC2)NC1=O` [compound 252] (Ac-[Pen]NT[Trp(7-Me)]K(Ac)[Pen]Y(X30)[2Nal][Thp]K(Ac)N[3Pal][Sar]-NH2; disulfide 1-6), for which the EPSA was found to be 148 A^2.

For the compound `CC(=O)N(C)CCCC[C@@H]1NC(=O)[C@H](Cc2c[nH]c3c(C)cccc23)NC(=O)[C@H]([C@@H](C)O)NC(=O)[C@H](CC(=O)N(C)C)NC(=O)[C@@H](NC(=O)CCOCCOCC[N+](C)(C)C)C(C)(C)SSC(C)(C)[C@@H](C(=O)N[C@@H](Cc2ccc(OCCCCCCCCC(=O)NCCOCCOCC[N+](C)(C)C)cc2)C(=O)N[C@@H](Cc2ccc3ccccc3c2)C(=O)NC2(C(=O)N[C@@H](CCCCN(C)C(C)=O)C(=O)N[C@@H](CC(N)=O)C(=O)N[C@@H](Cc3cccnc3)C(=O)N(C)CC(=O)N(C)C)CCOCC2)NC1=O` [compound 254, cPEG3aCO-Pen(3)-N(N(Me)2)-T-7MeW-K(NMeAc)-Pen(3)-YC8CO(NHPEG3a)-2Nal-THP-K(NMeAc)-N-3Pya-Sar-CON(Me)2] ({Me3N+(CH2)2O(CH2)2O(CH2)2CO}-[Pen]D(NMe2)T[Trp(7-Me)][Lys(Me)](Ac)[Pen]Y(X73)[2Nal][Thp][Lys(Me)](Ac)N[3Pal][Sar]-NMe2; disulfide 1-6), the EPSA is 144 A^2.

For the compound `CCCCCCCCCCCCCCCC[N+](C)(C)CCc1cn(CCOc2ccc(C[C@H](NC(=O)[C@H]3NC(=O)[C@H](CCCCNC(C)=O)NC(=O)[C@H](Cc4c[nH]c5c(C)cccc45)NC(=O)[C@H]([C@@H](C)O)NC(=O)[C@H](CC(N)=O)NC(=O)[C@@H](NC(C)=O)C(C)(C)SSC3(C)C)C(=O)N[C@@H](Cc3ccc4ccccc4c3)C(=O)NC3(C(=O)N[C@@H](CCCCNC(C)=O)C(=O)N[C@@H](CC(N)=O)C(=O)N[C@@H](Cc4cccnc4)C(=O)N(C)CC(N)=O)CCOCC3)cc2)nn1` [compound 259] (Ac-[Pen]NT[Trp(7-Me)]K(Ac)[Pen]Y(X28)[2Nal][Thp]K(Ac)N[3Pal][Sar]-NH2; disulfide 1-6), the EPSA worked out at 149 A^2.
